Data from ChEMBL document CHEMBL1131716, “Heterocycle-peptide hybrid compounds. Aminotriazole-containing agonists of the thrombin receptor (PAR-1)” (Bioorg Med Chem Lett, 1999).
pIC50: −log10 of the molar value. Where a SMILES comes first, the peptide text is derived from it. [ ]: non-standard residue; d: D form. The star is where a group is joined. Cha = N[C@@H](CC1CCCCC1)C(=O)O; Nicotinoyl = O=C(c1cccnc1)*; 3Abz = Nc1cccc(C(=O)O)c1; 4Abz = Nc1ccc(C(=O)O)cc1; βAla = NCCC(=O)O

Legend:
[1] = molecular target: T1, Proteinase-activated receptor 1 (Homo sapiens, UniProt P25116); assay: Inhibition of [3H]S-(p-F-Phe)-Har-L-Har-KY-NH2 binding to thrombin receptor (PAR-1) on membranes from CHRF cells; format: cell membranes
T1 sequence (P25116 whole entry): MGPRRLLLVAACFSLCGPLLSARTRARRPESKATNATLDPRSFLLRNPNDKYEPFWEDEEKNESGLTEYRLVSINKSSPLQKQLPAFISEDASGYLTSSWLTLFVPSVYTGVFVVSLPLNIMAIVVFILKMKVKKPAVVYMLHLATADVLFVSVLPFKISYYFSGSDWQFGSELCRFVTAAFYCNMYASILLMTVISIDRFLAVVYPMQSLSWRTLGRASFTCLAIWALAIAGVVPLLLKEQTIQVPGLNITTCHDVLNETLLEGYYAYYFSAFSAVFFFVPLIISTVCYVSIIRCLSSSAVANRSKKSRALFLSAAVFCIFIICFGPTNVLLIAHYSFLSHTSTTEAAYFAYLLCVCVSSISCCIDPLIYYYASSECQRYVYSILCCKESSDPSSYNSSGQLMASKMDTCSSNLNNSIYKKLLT

[2] = molecular target: T2, Proteinase-activated receptor 1 (Homo sapiens) (UniProt P25116); assay: Evaluated for activation of human platelet aggregation (gel-filtered platelets) induced by alpha thrombin at 50 uM; format: functional
T2 sequence (whole entry): T1 sequence (P25116 whole entry)

[3] = molecular target: T1, Proteinase-activated receptor 1; assay: Inhibition of [3H]S-(p-F-Phe)-Har-L-Har-KY-NH2 binding to Thrombin receptor 1 (PAR-1) on membranes from CHRF cells; format: cell membranes
Homo sapiens = organism: Homo sapiens; assay: Antagonist activity by using human gel-filtered platelet aggregation; format: functional

pIC50 [1]	percent activation of platelet aggregation [2] [%]	SMILES	further results
5.80		N=C(N)NCCC[C@H](NC(=O)[C@H](CC1CCCCC1)NC(=O)c1cc(=O)c2ccccc2o1)C(=O)N[C@@H](Cc1ccccc1)C(N)=O	
5.26		N=C(N)NCCC[C@H](NC(=O)[C@H](CC1CCCCC1)NC(=O)/C=C/c1cccnc1)C(=O)N[C@@H](Cc1ccccc1)C(N)=O	
5.51		N=C(N)NCCC[C@H](NC(=O)[C@H](CC1CCCCC1)NC(=O)c1cnc2ccccc2n1)C(=O)N[C@@H](Cc1ccccc1)C(N)=O	
4.80	< 20	N=C(N)NCCC[C@H](NC(=O)[C@H](CC1CCCCC1)NC(=O)C1=COc2ccccc2O1)C(=O)N[C@@H](Cc1ccccc1)C(N)=O	
5.00	55	N=C(N)NCCC[C@H](NC(=O)[C@H](CC1CCCCC1)NC(=O)c1ccc[nH]1)C(=O)N[C@@H](Cc1ccccc1)C(N)=O	
		N=C(N)NCCC[C@H](NC(=O)[C@H](CC1CCCCC1)NC(=O)c1n[nH]c(NC(=O)/C=C/c2ccc(F)cc2)n1)C(=O)N[C@@H](Cc1ccccc1)C(N)=O	pIC50 [3]: 5.92
4.00		N=C(N)NCCC[C@H](NC(=O)[C@H](CC1CCCCC1)NC(=O)c1n[nH]c(NC(=O)/C=C/c2c[nH]c3ccccc23)n1)C(=O)N[C@@H](Cc1ccccc1)C(N)=O	
4.80		N=C(N)NCCC[C@H](NC(=O)[C@H](CC1CCCCC1)NC(=O)c1n[nH]c(NC(=O)/C=C/c2cccc3ccccc23)n1)C(=O)N[C@@H](Cc1ccccc1)C(N)=O	pIC50 (Homo sapiens): 5.27
5.40		N=C(N)NCCC[C@H](NC(=O)[C@H](CC1CCCCC1)NC(=O)c1nnc(N)[nH]1)C(=O)N[C@@H](Cc1cccs1)C(N)=O	
5.15	26	N=C(N)NCCC[C@H](NC(=O)[C@H](CC1CCCCC1)NC(=O)c1ccncc1)C(=O)N[C@@H](Cc1ccccc1)C(N)=O	
4.89	56	N=C(N)NCCC[C@H](NC(=O)[C@H](CC1CCCCC1)NC(=O)c1ccc(-c2ccccc2)cc1)C(=O)N[C@@H](Cc1ccccc1)C(N)=O	
5.40		N=C(N)NCCC[C@H](NC(=O)[C@H](Cc1ccccc1)NC(=O)c1ccc2[nH]cnc2c1)C(=O)N[C@@H](Cc1ccccc1)C(N)=O	
5.30	20	N=C(N)NCCC[C@H](NC(=O)[C@H](CC1CCCCC1)NC(=O)/C=C/c1ccccc1)C(=O)N[C@@H](Cc1ccccc1)C(N)=O	
5.64		N=C(N)NCCC[C@H](NC(=O)[C@H](CC1CCCCC1)NC(=O)c1cc2ccccc2s1)C(=O)N[C@@H](Cc1ccccc1)C(N)=O	
	32	N=C(N)NCCC[C@H](NC(=O)[C@H](CC1CCCCC1)NC(=O)c1cnc(Cl)c(Cl)c1)C(=O)N[C@@H](Cc1ccccc1)C(N)=O	pIC50 [3]: 5.59
5.03		N=C(N)NCCC[C@H](NC(=O)[C@H](CC1CCCCC1)NC(=O)c1csnn1)C(=O)N[C@@H](Cc1ccccc1)C(N)=O	
5.64		N=C(N)NCCC[C@H](NC(=O)[C@H](CC1CCCCC1)NC(=O)c1cccnc1N)C(=O)N[C@@H](Cc1ccccc1)C(N)=O	
5.54	40	N=C(N)NCCC[C@H](NC(=O)[C@H](CC1CCCCC1)NC(=O)c1ccc(N)cc1)C(=O)N[C@@H](Cc1ccccc1)C(N)=O (H-[4Abz][Cha]RF-NH2)	
		N=C(N)NCCC[C@H](NC(=O)[C@H](CC1CCCCC1)NC(=O)c1n[nH]c(NC(=O)/C=C/c2cccc(Cl)c2)n1)C(=O)N[C@@H](Cc1ccccc1)C(N)=O	pIC50 [3]: 4.82
5.27		NCCCC[C@H](NC(=O)[C@H](CC1CCCCC1)NC(=O)c1n[nH]c(N)n1)C(=O)N[C@@H](Cc1ccccc1)C(N)=O	
		N=C(N)NCCC[C@H](NC(=O)[C@H](CC1CCCCC1)NC(=O)c1cc2ccccc2o1)C(=O)N[C@@H](Cc1ccccc1)C(N)=O	pIC50 [3]: 5.52
5.72		N=C(N)NCCC[C@H](NC(=O)[C@H](CC1CCCCC1)NC(=O)c1n[nH]c(N)n1)C(=O)N[C@@H](Cc1ccccc1)C(N)=O	
5.89		N=C(N)NCCC[C@H](NC(=O)[C@H](CC1CCCCC1)NC(=O)c1cccnc1)C(=O)N[C@@H](Cc1ccccc1)C(N)=O (Nicotinoyl-[Cha]-Arg-Phe-NH2)	
		N=C(N)NCCC[C@H](NC(=O)[C@H](CC1CCCCC1)NC(=O)c1n[nH]c(NC(=O)/C=C/c2ccccc2Cl)n1)C(=O)N[C@@H](Cc1ccccc1)C(N)=O	pIC50 (Homo sapiens): 5.44; pIC50 [3]: 5.85
5.36		N=C(N)NCCC[C@H](NC(=O)[C@H](CC1CCCCC1)NC(=O)c1n[nH]c(NC(=O)/C=C/c2cccs2)n1)C(=O)N[C@@H](Cc1ccccc1)C(N)=O	

pIC50 [1]	percent activation of platelet aggregation [2] [%]	SMILES	further results
		N=C(N)NCCC[C@H](NC(=O)[C@H](CC1CCCCC1)NC(=O)c1n[nH]c(NC(=O)/C=C/c2ccc(C(F)(F)F)cc2)n1)C(=O)N[C@@H](Cc1ccccc1)C(N)=O	pIC50 [3]: 4.52
5.36		N=C(N)NCCC[C@H](NC(=O)[C@H](CC1CCCCC1)NC(=O)c1ccccn1)C(=O)N[C@@H](Cc1ccccc1)C(N)=O	
5.05		N=C(N)NCCC[C@H](NC(=O)[C@H](CC1CCCCC1)NC(=O)CCN)C(=O)N[C@@H](Cc1ccccc1)C(N)=O (H-[βAla][Cha]RF-NH2)	
4.34	< 20	C[C@H](NC(=O)c1n[nH]c(N)n1)C(=O)N[C@@H](CCCN=C(N)N)C(=O)N[C@@H](Cc1ccccc1)C(N)=O	
		N=C(N)NCCC[C@H](NC(=O)[C@H](CC1CCCCC1)NC(=O)c1n[nH]c(NC(=O)/C=C/c2ccccc2)n1)C(=O)N[C@@H](Cc1ccccc1)C(N)=O	pIC50 (Homo sapiens): 5.01; pIC50 [3]: 5.19
6.26		CC(C)C[C@H](NC(=O)[C@H](CC(C)C)NC(=O)[C@H](Cc1ccccc1)NC(=O)[C@@H](N)CO)C(=O)N[C@@H](CCCN=C(N)N)C(=O)N[C@@H](CC(N)=O)C(N)=O	
5.70		N=C(N)NCCC[C@H](NC(=O)[C@H](CC1CCCCC1)NC(=O)c1ccc(N)nc1)C(=O)N[C@@H](Cc1ccccc1)C(N)=O	
		N=C(N)NCCC[C@H](NC(=O)[C@H](CC1CCCCC1)NC(=O)c1n[nH]c(NC(=O)/C=C/c2ccc(Cl)cc2)n1)C(=O)N[C@@H](Cc1ccccc1)C(N)=O	pIC50 [3]: 5.85
	30	NCCC(=O)N[C@@H](CC1CCCCC1)C(=O)N[C@@H](CCCN=C(N)N)C(=O)N[C@@H](Cc1ccccc1)C(N)=O (H-[βAla][Cha]RF-NH2)	
		N=C(N)NCCC[C@H](NC(=O)[C@H](CC1CCCCC1)NC(=O)c1n[nH]c(NC(=O)/C=C/c2cccc([N+](=O)[O-])c2)n1)C(=O)N[C@@H](Cc1ccccc1)C(N)=O	pIC50 [3]: 5.07
		N=C(N)NCCC[C@H](NC(=O)[C@H](CC1CCCCC1)NC(=O)c1n[nH]c(NC(=O)/C(F)=C/c2ccccc2)n1)C(=O)N[C@@H](Cc1ccccc1)C(N)=O	pIC50 (Homo sapiens): 4.55
5.70		N=C(N)NCCC[C@H](NC(=O)[C@H](Cc1ccccc1)NC(=O)c1nnc(N)[nH]1)C(=O)N[C@@H](Cc1ccccc1)C(N)=O	
4.57	< 20	N=C(N)NCCC[C@H](NC(=O)[C@H](CC1CCCCC1)NC(=O)c1n[nH]c(N)n1)C(=O)N[C@@H](Cc1c[nH]cn1)C(N)=O	
5.80		N=C(N)NCCC[C@H](NC(=O)[C@H](CC1CCCCC1)NC(=O)c1n[nH]c(NC(=O)/C=C/c2ccccc2[N+](=O)[O-])n1)C(=O)N[C@@H](Cc1ccccc1)C(N)=O	
4.25	21	N=C(N)NCCC[C@H](NC(=O)[C@H](CC1CCCCC1)NC(=O)c1cc2ccccc2[nH]1)C(=O)N[C@@H](Cc1ccccc1)C(N)=O	
5.12	< 20	N=C(N)NCCC[C@H](NC(=O)[C@H](CC1CCCCC1)NC(=O)c1cccnc1Cl)C(=O)N[C@@H](Cc1ccccc1)C(N)=O	
5.62		N=C(N)NCCC[C@H](NC(=O)[C@H](CC1CCCCC1)NC(=O)c1ccc(Cl)nc1)C(=O)N[C@@H](Cc1ccccc1)C(N)=O	
4.74	< 20	C[C@H](NC(=O)[C@H](CC1CCCCC1)NC(=O)c1n[nH]c(N)n1)C(=O)N[C@@H](Cc1ccccc1)C(N)=O	
4.60	38	N=C(N)NCCC[C@H](NC(=O)[C@H](CC1CCCCC1)NC(=O)c1ccoc1)C(=O)N[C@@H](Cc1ccccc1)C(N)=O	
		COc1ccc(/C=C/C(=O)Nc2n[nH]c(C(=O)N[C@@H](CC3CCCCC3)C(=O)N[C@@H](CCCN=C(N)N)C(=O)N[C@@H](Cc3ccccc3)C(N)=O)n2)cc1	pIC50 [3]: 5.40
5.07		N=C(N)NCCC[C@H](NC(=O)[C@H](CC1CCCCC1)NC(=O)c1nccnc1N)C(=O)N[C@@H](Cc1ccccc1)C(N)=O	
5.70		N=C(N)NCCC[C@H](NC(=O)[C@H](CC1CCCCC1)NC(=O)c1cccc(N)c1)C(=O)N[C@@H](Cc1ccccc1)C(N)=O (H-[3Abz][Cha]RF-NH2)	
5.62		N=C(N)NCCC[C@H](NC(=O)[C@H](CC1CCCCC1)NC(=O)c1ccc2c(c1)-c1ccccc1-2)C(=O)N[C@@H](Cc1ccccc1)C(N)=O	
5.15		N=C(N)NCCC[C@H](NC(=O)[C@H](CC1CCCCC1)NC(=O)c1nnc(N)[nH]1)C(=O)N[C@H](C(N)=O)c1ccccc1	
4.80	26	N=C(N)NCCC[C@H](NC(=O)[C@H](CC1CCCCC1)NC(=O)C1C=CC=NC1=O)C(=O)N[C@@H](Cc1ccccc1)C(N)=O (some centres not stated)	
